Structures can show the parent of a compound that is named as a salt. Where two headings read alike, the source gives them in different places.
Key:
Type in all cases: cell-based
[1] = tested on: human lung cancer cell line H1299; assay: Caspase cascade activation in H1299 cells; conditions: NCI-H1299, 24 h, read-out: Caspase activation Potency EC50 H1299 (24 h)
Summary of the method: (§1)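 Cells were exposed to compound at 0.016 to 10 μM final for 24 h or 48 h at 37 °C. They were then lysed with 14 μM N-(Ac-DEVD)-N′-ethoxycarbonyl-R110 in lysolecithin/DTT/PIPES buffer pH 7.2 for 3 h at room temperature (ex 485/em 530 nm). EC50 came from a sigmoidal fit of net RFU relative to untreated control.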

[2] = tested on: human hepatocellular carcinoma cell line SNU398; assay: Caspase cascade activation in SNU398 cells; conditions: Homo sapiens, SNU-398, 48 h, read-out: Caspase activation Potency EC50 SNU398 (48 h)
Summary of the method: as §1

[3] = tested on: human breast cancer cell line MX-1; assay: Inhibition of cell proliferation (GI50) in MX-1 cells; conditions: MX1 cells
Protocol: (§2) Human breast cancer cell lines T-47D, MX-1 and MDAMB435, human colon cancer cell line HT29, and human lung cancer cell line H1299 were grown and harvested as in Example 75. An aliquot of […] of cells (4.4×10^4 cells/mL) was added to a well of a 96-well microtiter plate containing 5 μL of a 10% DMSO in RPMI-1640 media solution containing 10 nM to 100 μM of N-(2,5-dimethoxyphenyl)-2-methylthieno[3,2-d]pyrimidin-4-amine (1 nM to 10 μM final). An aliquot of 45 μL of cells was added to a well of a 96-well microtiter plate containing 5 μL of a 10% DMSO in RPMI-1640 media solution without compound as the control sample for maximal cell proliferation (Lmax). The samples were mixed by agitation and then incubated at 37° C. for 48 h in a 5% CO2-95% humidity incubator. After incubation, the samples were removed from the incubator and 25 μL of CellTiter-Glo™ reagent (Promega) was added. The samples were mixed by agitation and incubated at room temperature for 10-15 min. Plates were then read using a luminescent plate reader (Model SPECTRAfluor Plus, Tecan) to give Ltest values.
(§3) Baseline for GI50 (dose for 50% inhibition of cell proliferation) of initial cell numbers was determined by adding an aliquot of 45 μL of cells or 45 μL of media, respectively, to wells of a 96-well microtiter plate containing 5 μL of a 10% DMSO in RPMI-1640 media solution. The samples were mixed by agitation and then incubated at 37° C. for 0.5 h in a 5% CO2-95% humidity incubator. After incubation, the samples were removed from the incubator and 25 μL of CellTiter-Glo™ reagent (Promega) was added. The samples were mixed by agitation and incubated at 37° C. for 10-15 min at room temperature in a 5% CO2-95% humidity incubator. Fluorescence was read as above, (LStart) defining luminescence for initial cell number used as baseline in GI50 determinations.
(§4) GI50 (dose for 50% inhibition of cell proliferation) is the concentration where [(LTest−Lstart)/(LMax−Lstart)]=0.5.

[4] = tested on: human breast cancer cell line MDAMB435; assay: Inhibition of cell proliferation (GI50) in MDAMB435 cells
Protocol: as §2, §3, §4

[5] = tested on: human hepatocellular carcinoma cell line SNU398; assay: Inhibition of cell proliferation (GI50) in SNU398 cells; conditions: SNU-398, Table IV, read-out: GI50 in Multi-Cancer Cells SNU398
Protocol: as §2, §3, §4
(§5) Several compounds were tested in multi cancer cell lines, including human breast cancer cell lines T-47D, MX-1, SKBR3 and MDAMB435, human hepatocellular carcinoma cell line SNU398, human colon carcinoma cell line HCT116, human sarcoma cell line MES-SA and multi-drug resistant (MDR) human sarcoma cell line MES-SA/ADR, murine leukemia cell line P388 and multi-drug resistant (MDR) murine leukemia cell line P388ADR, and the data are summarized in Table IV.

[6] = tested on: human breast cancer cell line SKBR3; assay: Inhibition of cell proliferation (GI50) in SKBR3 cells; conditions: SK-BR-3, Table IV, read-out: GI50 in Multi-Cancer Cells SKBR3
Protocol: as §2, §3, §4, §5

[7] = tested on: human sarcoma cell line MES-SA; assay: Inhibition of cell proliferation (GI50) in MES-SA cells; conditions: Table IV, read-out: GI50 in Multi-Cancer Cells MES-SA
Protocol: as §2, §3, §4, §5

[8] = tested on: multi-drug resistant (MDR) human sarcoma cell line MES-SA/ADR; assay: Inhibition of cell proliferation (GI50) in MES-SA/ADR cells; conditions: Table IV, read-out: GI50 in Multi-Cancer Cells MES-SA/ADR
Protocol: as §2, §3, §4, §5

[9] = tested on: multi-drug resistant (MDR) murine leukemia cell line P388ADR; assay: Inhibition of cell proliferation (GI50) in P388/ADR cells; conditions: Mus musculus, Table IV, read-out: GI50 in Multi-Cancer Cells P388/ADR
Protocol: as §2, §3, §4, §5

[10] = Table IV, read-out: GI50 in Multi-Cancer Cells MX1
[11] = MDA-MB-435, Table IV, read-out: GI50 in Multi-Cancer Cells MDAMB435

EC50 [1] [µM]	EC50 [2] [µM]	GI50 ([3]; Table III, 48 h, read-out: GI50 in Cancer Cells MX1) [µM]	GI50 [3, 10] [µM]	GI50 ([4]; MDA-MB-435, Table III, 48 h, read-out: GI50 in Cancer Cells MDAMB435) [µM]	GI50 [4, 11] [µM]	GI50 [5] [µM]	GI50 [6] [µM]	GI50 [7] [µM]	GI50 [8] [µM]	GI50 [9] [µM]	Structure (SMILES)
2.91	1.61	0.3	0.8	0.756	1.07	2.1	0.5	5.19	7.26	2.6	COc1ccc(OC)c(Nc2ncnc3ccsc23)c1 [Example 2, N-(2,5-Dimethoxyphenyl)thieno[3,2-d]pyrimidin-4-amine]
0.303	0.249		0.017		0.105	0.706	0.06	0.364	1.2	0.296	COc1cc(Nc2ncnc3ccsc23)cc(OC)c1 [Example 12, N-(3,5-Dimethoxyphenyl)thieno[3,2-d]pyrimidin-4-amine hydrochloride]

From patent US20070099877A1, “N-aryl-thienopyrimidin-4-amines and analogs as activators of caspases and inducers of apoptosis and the use thereof” (Cytovia, Inc., priority 2005, published 2007)
